Experimental data taken from patent publication US20030148954A1, “Agents and methods for modulating activator protein-1-mediated cellular processes” (Wisconsin Alumni Research Foundation, priority 2001, published 2003).

Tests used:
Assay type in all cases: cell-based, human
[1] = test system: AP-1; assay: AP-1 luciferase reporter, transient transfection of HeLa cells; conditions: TPA 5 nM 16 h
Excerpt: Plasmids—The pBabe-NIC-1 (pNIC-1) expression vector encoding constitutively active Notch-1 (NIC-1) was described previously (36,37,51). This vector was derived from the pBabe-puro retroviral vector and includes a cDNA sequence encoding amino acids 1759-2556 of human Notch-1 with a Myc tag fused to its carboxyl terminus. Human NIC-1 deletion mutants were generated by PCR using a full-length human Notch-1 expression vector as the template. The Notch-dependent reporter plasmid containing four CBF1 binding sites and an simian virus 40 promoter fused to luciferase (p4×CBF1luc) was described previously (52). The AP-1 reporter plasmid (p1×AP1luc) containing a collagenase promoter fragment (−73/+67) with a single AP-1 binding site in the luciferase reporter vector pGL2-basic (Promega) was described previously (53). The NF-κB reporter plasmid (p3×κBluc) containing three NF-κB binding sites and a minimal promoter fused to luciferase was a kind gift of Dr. Shigeki Miyamoto (University of Wisconsin Medical School). […]
For each transfection, cells were incubated for 26 h after transfection and then treated with TPA (final concentration: 5 nM) or the vehicle (DMSO). […] Luciferase activity was normalized by the protein content of the lysates, determined by Bradford assay using γ-globulin as a standard.

[2] = test system: IκBα; assay: Northern blotting of IκBα transcripts in K562-Babe and K562-NIC-1 cells; conditions: 5 nM TPA 12 h, stably transfected NIC-1
Description: (§1) Stable Transfection—K562 cells were stably transfected by electroporation with a Bio-Rad Gene pulser electroporator. Cells (5×10^6) were washed with ice-cold PBS, resuspended in 0.5 ml of ice-cold PBS, mixed with 5 μg linearized plasmid DNA, and subjected to electroporation (960 microfarad; 220 V) in a 0.4 cm-wide electroporation cuvette (BTX). pBabe and pNIC-1 were linearized with NotI. Cells were then added to 20 ml of complete IMEM, grown for 48 h, and diluted in complete IMEM containing 1.5 μg/ml puromycin (pools of K562-Babe and K562-NIC-1 cells). Stably transfected cells were analyzed for erythroid differentiation as soon as the pools were generated by benzidine staining to reduce the probability of phenotypic changes that may result from prolonged growth.
Northern Blotting—Total RNA from K562-Babe and K562-NIC-1 cells was extracted with Triazol (Life Technologies, Inc.). Ten μg of RNA per sample was electrophoresed on a 1% agarose, 6.6% formaldehyde gel and then transferred overnight to a Magnacharge nylon membrane (Osmonics). RNA was cross-linked to the membrane by UV irradiation. Membranes were prehybridized for 30 min at 60° C. in ExpressHyb hybridization solution (Clontech). […] Radioactivity was quantitated by PhosphorImager analysis with ImageQuant software (Molecular Dynamics).

[3] = test system: p38; assay: Western blot with phospho-specific antibodies, p38; conditions: K562-NIC-1 versus K562-Babe, 5 nM TPA 30 min
Description: as §1
To measure the phosphorylation state of components of the MAPK pathway, K562-Babe and K562-NIC-1 cells (1×10^6) were collected after treatment with 5 nM TPA or DMSO for 30 min. Cells were washed once with ice-cold PBS, cell pellets were resuspended in 30 μl ice-cold PBS and were immediately boiled in 70 μl SDS sample buffer for 10 min. Proteins (10 μl) were resolved by SDS-PAGE on a 10% acrylamide gel and transferred to Immobilon P membrane (Millipore). […] Antigen-antibody complexes were detected with ECL Plus™ (Amersham Life Science) according to manufacturer's instructions.

NIC-1: constitutively active Notch-1 intracellular domain, amino acids 1759-2556 of human Notch-1 with carboxyl-terminal Myc tag, expressed from pBabe-NIC-1
repression of TPA-induced AP-1-mediated activation [1]: repressed | effect on TPA induction of IκBα transcripts [2]: no effect | effect on TPA-induced or basal phosphorylation of p38 [3]: did not affect
